Calls of active or inactive are those of the source.
Tests used:
[1] = target: Peroxisome proliferator-activated receptor gamma/Nuclear receptor coactivator 1 (Homo sapiens, UniProt P37231); test: TR-FRET dose response biochemical High Throughput Screening assay for agonists of the steroid receptor coactivator 1 (SRC-1) recruitment by the peroxisome proliferator-activated receptor gamma (PPAR gamma): non-selective agonists. [Related pubchem assays (depositor defined):AID1300, AID1808, AID504735, AID631]; assay type: protein assay
[2] = target: Peroxisome proliferator-activated receptor gamma/Nuclear receptor coactivator 2 (Homo sapiens, UniProt P37231); test: (§1) TR-FRET dose response biochemical High Throughput Screening assay for agonists of the steroid receptor coactivator 2 (SRC-2) recruitment by the peroxisome proliferator-activated receptor gamma (PPAR gamma): non-selective agonists. [Related pubchem assays: 1297, 1032 ]; assay type: functional
[3] = target: Peroxisome proliferator-activated receptor gamma/Nuclear receptor coactivator 3 (Homo sapiens, UniProt P37231); test: as §1, with “3 (SRC-3)” for “2 (SRC-2)”, “1301 (Confirmation screen.), 1048 (Primary screen.)]” for “1297, 1032 ]”; assay type: functional
[4] = test system: HeLa; test: HeLa cell cytotoxicity, dose response, cytotoxicity control for MITF activator project, CellTiter-Glo luminescence, cherry-pick samples (AID 540259); assay type: functional, cell-based; details: Homo sapiens
[5] = cells; assay type: functional
[6] = target: Cytochrome P450 3A4 (Homo sapiens, UniProt P08684);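 note: CYP3A4 tested as one member of a cytochrome P450 panel screen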
[7] = target: Cytochrome P450 2C9 (Homo sapiens, UniProt P11712)
[8] = target: T1, Cytochrome P450 1A2 (Homo sapiens, UniProt P05177);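 note: PubChem cytochrome P450 panel assay, CYP1A2 panel member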
T1 sequence (P05177 whole entry): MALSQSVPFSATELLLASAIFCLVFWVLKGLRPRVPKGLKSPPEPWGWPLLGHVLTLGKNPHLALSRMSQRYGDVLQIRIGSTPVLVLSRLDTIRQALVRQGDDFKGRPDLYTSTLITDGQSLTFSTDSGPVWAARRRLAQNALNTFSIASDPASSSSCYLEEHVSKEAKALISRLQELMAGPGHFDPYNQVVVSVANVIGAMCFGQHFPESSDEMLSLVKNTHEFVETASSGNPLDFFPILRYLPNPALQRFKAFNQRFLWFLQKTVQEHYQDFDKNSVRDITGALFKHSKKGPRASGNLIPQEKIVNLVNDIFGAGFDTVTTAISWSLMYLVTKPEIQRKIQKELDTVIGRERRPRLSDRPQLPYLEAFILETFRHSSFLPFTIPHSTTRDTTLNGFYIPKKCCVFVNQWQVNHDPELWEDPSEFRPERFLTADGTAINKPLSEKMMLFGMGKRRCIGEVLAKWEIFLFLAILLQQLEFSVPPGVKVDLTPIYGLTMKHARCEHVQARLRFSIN

[9] = cells
[10] = target: T2, Carboxy-terminal domain RNA polymerase II polypeptide A small phosphatase 1 (Homo sapiens, UniProt Q9GZU7); test: inhibitors of CTDSP1, concentration-response testing, biochemical assay, absorbance-based, actives from ultra-high-throughput screening (AID 540297); assay type: functional
T2 sequence (Q9GZU7 whole entry): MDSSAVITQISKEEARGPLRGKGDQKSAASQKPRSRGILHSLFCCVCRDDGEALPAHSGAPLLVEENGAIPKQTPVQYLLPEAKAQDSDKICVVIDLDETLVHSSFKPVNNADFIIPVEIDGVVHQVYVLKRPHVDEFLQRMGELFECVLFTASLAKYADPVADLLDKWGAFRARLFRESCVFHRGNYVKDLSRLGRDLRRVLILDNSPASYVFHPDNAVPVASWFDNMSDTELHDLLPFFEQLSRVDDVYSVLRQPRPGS

[11] = HEp-2 cell cytotoxicity, dose response, cytotoxicity control for RSV inhibitor project, HTS (AID 2410); assay type: functional; details: human respiratory syncytial virus
[12] = target: Glucose-6-phosphate 1-dehydrogenase (Homo sapiens, UniProt P11413); test: human G6PD enzyme inhibitors, dose response, selectivity assay for P. falciparum G6PD inhibitor project, biochemical, fluorescence (AID 504792); assay type: functional
[13] = target: T3, Estrogen receptor (Homo sapiens, UniProt P03372);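 note: potency for inhibiting coactivator peptide recruitment to the receptor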
T3 sequence (P03372 whole entry): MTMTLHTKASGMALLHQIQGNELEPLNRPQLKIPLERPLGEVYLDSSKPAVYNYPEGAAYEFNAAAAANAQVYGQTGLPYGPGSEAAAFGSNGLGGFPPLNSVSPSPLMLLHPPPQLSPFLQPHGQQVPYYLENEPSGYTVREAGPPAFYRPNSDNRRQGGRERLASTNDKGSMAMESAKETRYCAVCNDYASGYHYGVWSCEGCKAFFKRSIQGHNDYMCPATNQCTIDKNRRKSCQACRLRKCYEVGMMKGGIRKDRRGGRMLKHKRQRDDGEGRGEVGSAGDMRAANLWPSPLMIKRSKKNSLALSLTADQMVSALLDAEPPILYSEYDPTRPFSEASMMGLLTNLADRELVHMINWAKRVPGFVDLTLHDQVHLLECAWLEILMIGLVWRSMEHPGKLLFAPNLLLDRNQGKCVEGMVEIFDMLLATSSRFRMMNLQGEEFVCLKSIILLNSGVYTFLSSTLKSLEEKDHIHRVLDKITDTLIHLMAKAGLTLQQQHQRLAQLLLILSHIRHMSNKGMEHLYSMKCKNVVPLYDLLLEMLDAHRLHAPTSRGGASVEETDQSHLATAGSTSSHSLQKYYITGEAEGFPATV

[14] = target: Estrogen receptor beta (Homo sapiens, UniProt Q92731);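 note: recombinant ER-beta bound to coactivator SRC1 peptide in presence of estradiol agonist; inhibitors block coactivator peptide binding and lower the FRET signal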
[15] = target: T4, Heat shock factor protein 1 (Mus musculus, UniProt P38532); test: inhibition of MG132-induced HSE-luciferase signal, confirmation, cell-based, NIH3T3, luminescence, dose retest (AID 2382); assay type: functional;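 note: NIH3T3 fibroblasts with HSF1-driven luciferase reporter stressed by proteasome inhibitor MG132; luminescence from HSF1-driven luciferase expression after 8 hours of MG132 stress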
T4 sequence (P38532 whole entry): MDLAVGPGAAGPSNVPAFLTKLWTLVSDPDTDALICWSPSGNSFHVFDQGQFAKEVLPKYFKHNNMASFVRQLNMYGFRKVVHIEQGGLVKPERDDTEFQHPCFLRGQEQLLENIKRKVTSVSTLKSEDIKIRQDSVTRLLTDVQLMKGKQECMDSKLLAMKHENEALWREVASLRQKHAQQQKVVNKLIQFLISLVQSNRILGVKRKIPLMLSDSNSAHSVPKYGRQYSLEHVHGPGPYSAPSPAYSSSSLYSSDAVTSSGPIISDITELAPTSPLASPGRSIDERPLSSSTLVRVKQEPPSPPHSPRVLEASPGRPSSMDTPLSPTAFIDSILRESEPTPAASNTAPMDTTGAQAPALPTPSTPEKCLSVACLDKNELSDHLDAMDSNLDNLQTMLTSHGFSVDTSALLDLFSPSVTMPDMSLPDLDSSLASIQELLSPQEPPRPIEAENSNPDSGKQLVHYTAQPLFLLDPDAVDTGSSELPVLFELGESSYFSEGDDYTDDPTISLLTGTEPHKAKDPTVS

Sequence of Peroxisome proliferator-activated receptor gamma/Nuclear receptor coactivator 1 (P37231 whole entry): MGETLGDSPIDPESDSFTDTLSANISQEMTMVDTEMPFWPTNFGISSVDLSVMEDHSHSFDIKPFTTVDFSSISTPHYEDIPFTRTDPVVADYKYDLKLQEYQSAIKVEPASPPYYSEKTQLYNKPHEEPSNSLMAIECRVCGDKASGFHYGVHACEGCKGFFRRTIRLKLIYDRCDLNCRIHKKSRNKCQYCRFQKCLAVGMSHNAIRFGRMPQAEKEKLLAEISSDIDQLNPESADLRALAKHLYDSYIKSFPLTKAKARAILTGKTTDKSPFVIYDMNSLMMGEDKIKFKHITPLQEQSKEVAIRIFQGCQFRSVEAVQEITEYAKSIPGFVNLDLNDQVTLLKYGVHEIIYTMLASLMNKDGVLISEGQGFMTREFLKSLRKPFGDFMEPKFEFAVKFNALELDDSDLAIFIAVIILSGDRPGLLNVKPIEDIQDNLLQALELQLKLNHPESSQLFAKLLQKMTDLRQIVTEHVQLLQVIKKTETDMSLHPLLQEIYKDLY
Sequence of Peroxisome proliferator-activated receptor gamma/Nuclear receptor coactivator 1 (Q15788 whole entry, further chain): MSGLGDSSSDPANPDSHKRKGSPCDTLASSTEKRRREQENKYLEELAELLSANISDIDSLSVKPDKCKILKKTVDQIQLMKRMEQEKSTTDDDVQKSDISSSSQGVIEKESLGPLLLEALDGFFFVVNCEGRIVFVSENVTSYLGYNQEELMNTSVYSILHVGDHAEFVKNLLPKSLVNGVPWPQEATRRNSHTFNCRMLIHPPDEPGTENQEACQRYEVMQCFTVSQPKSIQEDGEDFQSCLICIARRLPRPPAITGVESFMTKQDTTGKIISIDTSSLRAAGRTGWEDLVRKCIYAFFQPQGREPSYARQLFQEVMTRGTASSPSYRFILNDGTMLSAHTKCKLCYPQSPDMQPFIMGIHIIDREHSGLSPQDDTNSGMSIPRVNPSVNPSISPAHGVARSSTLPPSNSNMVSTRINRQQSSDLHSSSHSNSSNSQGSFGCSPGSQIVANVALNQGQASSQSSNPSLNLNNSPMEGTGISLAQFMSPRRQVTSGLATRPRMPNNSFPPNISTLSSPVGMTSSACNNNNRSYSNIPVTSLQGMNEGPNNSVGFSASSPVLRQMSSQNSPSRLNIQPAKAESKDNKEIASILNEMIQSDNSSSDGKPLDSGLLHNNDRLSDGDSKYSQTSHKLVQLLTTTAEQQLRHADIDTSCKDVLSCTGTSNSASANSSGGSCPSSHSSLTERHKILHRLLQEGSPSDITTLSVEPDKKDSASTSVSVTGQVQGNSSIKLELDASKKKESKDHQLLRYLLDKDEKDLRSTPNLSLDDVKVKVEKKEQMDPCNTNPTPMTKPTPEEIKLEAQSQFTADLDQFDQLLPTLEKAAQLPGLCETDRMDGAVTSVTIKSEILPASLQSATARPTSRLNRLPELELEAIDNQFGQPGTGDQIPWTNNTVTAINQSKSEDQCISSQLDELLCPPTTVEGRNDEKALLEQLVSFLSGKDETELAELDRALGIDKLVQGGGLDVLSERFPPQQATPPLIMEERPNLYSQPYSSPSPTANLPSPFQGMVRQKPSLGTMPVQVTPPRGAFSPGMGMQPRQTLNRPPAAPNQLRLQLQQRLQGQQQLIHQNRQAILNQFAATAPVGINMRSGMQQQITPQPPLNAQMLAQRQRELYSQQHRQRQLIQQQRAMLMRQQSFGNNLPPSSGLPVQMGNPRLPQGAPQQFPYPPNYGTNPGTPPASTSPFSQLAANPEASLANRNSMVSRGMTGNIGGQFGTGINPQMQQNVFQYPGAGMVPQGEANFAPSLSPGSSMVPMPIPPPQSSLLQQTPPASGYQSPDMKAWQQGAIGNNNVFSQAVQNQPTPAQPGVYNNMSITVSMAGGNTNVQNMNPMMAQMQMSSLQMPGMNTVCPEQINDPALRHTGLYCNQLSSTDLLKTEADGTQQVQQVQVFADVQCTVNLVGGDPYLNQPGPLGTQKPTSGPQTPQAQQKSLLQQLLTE
Sequence of Peroxisome proliferator-activated receptor gamma/Nuclear receptor coactivator 2 (P37231 whole entry): as the sequence (P37231 whole entry) above
Sequence of Peroxisome proliferator-activated receptor gamma/Nuclear receptor coactivator 2 (Q15596 whole entry, further chain): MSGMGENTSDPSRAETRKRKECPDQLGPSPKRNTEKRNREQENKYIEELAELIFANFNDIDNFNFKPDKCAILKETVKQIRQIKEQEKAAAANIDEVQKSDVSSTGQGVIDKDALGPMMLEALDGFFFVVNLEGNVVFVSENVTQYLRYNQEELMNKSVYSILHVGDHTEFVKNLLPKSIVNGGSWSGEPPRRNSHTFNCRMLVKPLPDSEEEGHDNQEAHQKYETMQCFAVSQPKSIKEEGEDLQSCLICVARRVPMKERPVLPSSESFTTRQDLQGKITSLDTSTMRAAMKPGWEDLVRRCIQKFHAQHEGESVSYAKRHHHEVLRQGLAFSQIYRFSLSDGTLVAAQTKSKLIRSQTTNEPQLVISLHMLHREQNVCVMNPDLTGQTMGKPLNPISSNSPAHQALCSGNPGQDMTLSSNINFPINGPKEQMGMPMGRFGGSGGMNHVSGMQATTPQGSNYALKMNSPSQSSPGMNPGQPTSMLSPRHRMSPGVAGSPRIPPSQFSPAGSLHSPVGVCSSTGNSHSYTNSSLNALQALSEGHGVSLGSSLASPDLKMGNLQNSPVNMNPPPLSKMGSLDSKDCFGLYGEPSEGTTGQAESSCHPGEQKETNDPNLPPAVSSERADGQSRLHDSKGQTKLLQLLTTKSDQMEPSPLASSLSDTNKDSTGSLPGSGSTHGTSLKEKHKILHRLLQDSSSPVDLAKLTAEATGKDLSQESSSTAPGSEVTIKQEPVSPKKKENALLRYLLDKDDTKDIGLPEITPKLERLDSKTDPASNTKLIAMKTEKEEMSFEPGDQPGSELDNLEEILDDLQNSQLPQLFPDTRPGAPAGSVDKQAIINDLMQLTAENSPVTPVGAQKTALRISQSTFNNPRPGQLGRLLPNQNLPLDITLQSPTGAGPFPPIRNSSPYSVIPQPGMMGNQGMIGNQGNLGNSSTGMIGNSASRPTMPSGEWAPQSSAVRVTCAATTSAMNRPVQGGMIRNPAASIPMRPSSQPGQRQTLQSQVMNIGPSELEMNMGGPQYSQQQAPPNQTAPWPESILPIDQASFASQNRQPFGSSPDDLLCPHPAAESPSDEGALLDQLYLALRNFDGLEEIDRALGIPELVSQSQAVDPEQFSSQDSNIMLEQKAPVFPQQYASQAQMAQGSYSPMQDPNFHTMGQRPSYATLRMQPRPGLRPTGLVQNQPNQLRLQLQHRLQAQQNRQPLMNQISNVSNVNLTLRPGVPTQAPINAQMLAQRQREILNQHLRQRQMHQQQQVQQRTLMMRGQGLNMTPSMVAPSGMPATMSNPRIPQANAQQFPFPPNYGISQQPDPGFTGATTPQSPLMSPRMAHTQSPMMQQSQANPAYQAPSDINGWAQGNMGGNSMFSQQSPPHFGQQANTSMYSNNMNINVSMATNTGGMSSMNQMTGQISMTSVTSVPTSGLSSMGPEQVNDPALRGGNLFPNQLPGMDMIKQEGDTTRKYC
Sequence of Glucose-6-phosphate 1-dehydrogenase (P11413 whole entry): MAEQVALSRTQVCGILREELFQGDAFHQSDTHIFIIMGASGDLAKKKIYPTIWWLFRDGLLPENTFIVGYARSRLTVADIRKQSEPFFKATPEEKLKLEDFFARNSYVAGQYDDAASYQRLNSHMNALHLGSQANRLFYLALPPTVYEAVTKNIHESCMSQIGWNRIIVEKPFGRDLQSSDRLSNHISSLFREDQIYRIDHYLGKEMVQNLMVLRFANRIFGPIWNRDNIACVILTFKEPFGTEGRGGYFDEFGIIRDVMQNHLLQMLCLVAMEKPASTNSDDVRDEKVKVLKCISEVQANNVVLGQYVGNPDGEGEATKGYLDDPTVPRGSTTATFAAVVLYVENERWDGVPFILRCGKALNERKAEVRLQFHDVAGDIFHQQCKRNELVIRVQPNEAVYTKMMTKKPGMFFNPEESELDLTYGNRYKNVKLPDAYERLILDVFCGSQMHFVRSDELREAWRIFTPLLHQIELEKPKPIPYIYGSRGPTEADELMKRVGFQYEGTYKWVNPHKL
Sequence of Cytochrome P450 2C9 (P11712 whole entry): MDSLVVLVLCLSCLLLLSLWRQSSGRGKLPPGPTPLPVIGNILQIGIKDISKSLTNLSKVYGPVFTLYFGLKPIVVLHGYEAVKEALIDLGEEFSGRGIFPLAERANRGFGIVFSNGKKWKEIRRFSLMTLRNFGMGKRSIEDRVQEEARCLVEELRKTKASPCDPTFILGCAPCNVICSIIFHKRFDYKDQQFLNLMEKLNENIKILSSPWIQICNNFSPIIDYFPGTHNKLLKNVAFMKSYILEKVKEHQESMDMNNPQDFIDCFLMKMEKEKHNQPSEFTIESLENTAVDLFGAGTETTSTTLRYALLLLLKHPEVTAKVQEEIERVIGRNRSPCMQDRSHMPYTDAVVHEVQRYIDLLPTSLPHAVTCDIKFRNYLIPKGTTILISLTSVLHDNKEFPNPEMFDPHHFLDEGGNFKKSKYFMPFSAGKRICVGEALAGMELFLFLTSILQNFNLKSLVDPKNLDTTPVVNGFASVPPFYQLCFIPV

CSc1cnn(Cc2ccccc2)c(=O)c1SCc1ccccc1
EC50 [1]: 3.27 µM (active) | EC50 [2]: 7.94 µM (active) | EC50 [3]: > 79.4 µM (not active)

Cc1ccc(NCCC(=O)c2cccs2)cc1C
AC50 [4]: > 350 µM (inactive) | IC50 [5]: 20.7 µM (active)

CC(=N)/C(C#N)=C(/O)COc1ncnc2ccc(Br)cc12
AC50 [6]: 17.8 µM (inconclusive) | AC50 [7]: 11.2 µM (inconclusive) | AC50 [8]: 0.0316 µM (inconclusive) | IC50 [9]: 1.14 µM (active)

CC(=O)c1ccc2oc3ccccc3c(=O)c2c1
AC50 [4]: 41 µM (active)

Cn1nc(-c2ccc(C(=O)Nc3ccc(F)cc3)cc2)c2ccccc2c1=O
IC50 [10]: 10.4 µM (active)

CCn1c(=O)cc(SCC(=O)NCCN2CCN(Cc3ccccc3)CC2)c2ccccc21
EC50 [1]: > 79.4 µM (inactive) | EC50 [2]: > 79.4 µM (not active) | EC50 [3]: > 79.4 µM (not active)

O=C1c2ccccc2/C(=C\C#Cc2ccccn2)N1c1ccccc1
AC50 [4]: 42.6 µM (active)

Cc1[nH]c(C)c(S(=O)(=O)N2CCN(c3cccc(Cl)c3)CC2)c1C(=O)N1CCCCC1
CC50 [11]: 29.3 µM (active) | IC50 [9]: 31.5 µM (active)

COc1c(C)cccc1C(=O)NC(=S)Nc1cccc2nsnc12
EC50 [1]: 3.68 µM (active) | EC50 [2]: 4.14 µM (active) | EC50 [3]: 39.5 µM (not active)

CN1CCN(C(=S)c2ccc([N+](=O)[O-])cc2)CC1
IC50 [12]: > 80 µM (inactive)

Cc1[nH]c2ccc(-c3nnc(SCC(=O)c4ccccc4F)o3)cc2c1C
CC50 [11]: 32.8 µM (active) | IC50 [13]: 26 µM (active) | IC50 [9]: 40.7 µM (active)

CN1CC2(C)CN(C(c3ccccc3)c3ccccc3)CC(C)(C1)C2O (centres undefined)
IC50 [14]: > 50 µM (not active)

CN(C(=O)c1cc(-c2ccccc2)on1)C1CCCCC1
AC50 [4]: > 350 µM (inactive)

COc1cccc(-c2c(C(=O)N/N=C/c3ccc(C)s3)nnn2-c2nonc2N)c1
EC50 [15]: > 195 µM (not active) | IC50 [12]: > 80 µM (inactive)

COc1ccccc1OCCn1c(SCC(=O)O)nc2ccccc21
IC50 [10]: 6.47 µM (active)

CCOc1ccc(NC(=O)CSc2ncnc3c2sc2ccccc23)cc1
EC50 [1]: > 79.4 µM (inactive) | EC50 [2]: 32 µM (not active) | EC50 [3]: 81.4 µM (not active)

COc1ccccc1Nc1nc(-c2cccc([N+](=O)[O-])c2)cs1
CC50 [11]: 25.1 µM (active) | IC50 [9]: 12.3 µM (active)
